Reference: patent publication US4276890A, “Tobacco smoking inhibitor” (priority 1979, dated 1981)
≈ marks a conversion by molar mass, not a printed value.

Columns and labels:
Solubility = format: physicochemical
Method: The troches were made essentially by conventional candy making techniques. The polysaccharide and starch were first dry blended to substantial uniformity. About 3-4% by weight of water was added to the dry powder to form a thick paste. This paste was then heated to produce a uniform viscous melt. Maltol or ethyl maltol were added to this melt as saturated solutions in boiling water. The water solubility of the gamma pyrones is somewhat limited. For example, one gram of ethyl maltol requires 6 ml of water at 100° C. to dissolve completely. Since the water content of the mixture must be kept low, the amount of ethyl maltol which can be incorporated is about 3-4%, and preferably about 1% by weight of the troche. […] Alternatively, the entire process can be carried out in a suitable pressure apparatus.

[1] = system: spontaneous motor activity; conditions: mice; relative to maltol; cited from earlier work
[2] = Dissolution in the mouth of gamma pyrone particles dispersed in chewing gum; format: physicochemical; conditions: particles 300 to 400 mesh
Method: The formation of a chewing gum for administering a gamma pyrone according to the invention is next described. Crystaline ethyl maltol was ground and sieved to 300 mesh. The ground particles acquired a static charge, tending to float upwards. In practice, it was possible to sieve the particles upwards, collecting only those which passed through the 300 mesh screen.
The ground particles were mixed at 45° C. with a plastic chewing gum base, until evenly distributed throughout the mass. The chewing gum base was selected to be free of amino acids, tannins and other flavoring elements capable of combining with gamma pyrone to yield bitter off flavors. The rate of release of gamma pyrone into the oral cavity is a function of the rate of solution of the gamma pyrone as the gum is chewed. The rate of solution is controlled by the size of the gamma pyrone particles dispersed in the gum. Optimally, for ethyl maltol, particles in the size range from 300 to 400 mesh when dispersed in such a matrix, are dissolved in the mouth in about 30 minutes. The gamma pyrone must be dispersed throughout the gum in particulate form to provide the desired sustained release effect, particles […] than 300-400 mesh dissolved more slowly, so that the incremental dose was delivered more slowly. […] particles dissolved more rapidly than desired so that the dose was delivered in an undesirably short time. […]

CCc1occc(=O)c1O [ethyl maltol, 3-hydroxy-2-ethyl-4-pyrone]
solubility in alcoholic solution (Solubility; compared with water): somewhat more soluble | solubility (Solubility; one gram, water at 100° C., read-out: water to dissolve one gram completely (converted)): 167 mg/mL (≈ 1190 mM) | spontaneous motor activity (in words) [1]: also inhibitory, but somewhat less potent | dissolution time in the mouth from gum [2]: about 30 minutes
